Structures can show the parent of a compound that is named as a salt.
Molecular target: EGFR WT (Homo sapiens (Human), UniProt P00533)
Experiment: ErbB enzyme assay (CisBio HTRF-KinEASE-TK), EGFR WT
Assay type: biochemical
Settings: ATP at Km (25 μM), 1 h incubation
Method: In vitro enzyme assays based on CisBio HTRF-KinEASE-TK technology were used to determine compound potencies. […]. Compounds were prepared as a three-fold serial dilution in DMSO and added to the assay to give the appropriate final concentration. After a 1 h incubation at ambient temperature, the reaction was quenched by adding 10 μL of 62.5 nM Sa-XL665 and 0.25×TK-Ab-Cryptate in HTRF detection buffer (all from CisBio, part of cat #62TKOPEC). After another 1 h incubation at ambient temperature, the extent of substrate phosphorylation was determined using a PerkinElmer EnVision multimode plate reader via time-resolved fluorescence dual wavelength detection. The percent of control (POC) was calculated using the ratio of emission at […] to the emission at 620 nm. One hundred POC was determined using DMSO only controls (no test compounds present) and zero POC was determined using pre-quenched controls reactions. A 4-parameter logistic equation was fit to the POC values as a function of the test compound concentration and the IC50 value was determined as the point where the curve crossed 50 POC.

Sequence of EGFR WT (P00533 25-1210): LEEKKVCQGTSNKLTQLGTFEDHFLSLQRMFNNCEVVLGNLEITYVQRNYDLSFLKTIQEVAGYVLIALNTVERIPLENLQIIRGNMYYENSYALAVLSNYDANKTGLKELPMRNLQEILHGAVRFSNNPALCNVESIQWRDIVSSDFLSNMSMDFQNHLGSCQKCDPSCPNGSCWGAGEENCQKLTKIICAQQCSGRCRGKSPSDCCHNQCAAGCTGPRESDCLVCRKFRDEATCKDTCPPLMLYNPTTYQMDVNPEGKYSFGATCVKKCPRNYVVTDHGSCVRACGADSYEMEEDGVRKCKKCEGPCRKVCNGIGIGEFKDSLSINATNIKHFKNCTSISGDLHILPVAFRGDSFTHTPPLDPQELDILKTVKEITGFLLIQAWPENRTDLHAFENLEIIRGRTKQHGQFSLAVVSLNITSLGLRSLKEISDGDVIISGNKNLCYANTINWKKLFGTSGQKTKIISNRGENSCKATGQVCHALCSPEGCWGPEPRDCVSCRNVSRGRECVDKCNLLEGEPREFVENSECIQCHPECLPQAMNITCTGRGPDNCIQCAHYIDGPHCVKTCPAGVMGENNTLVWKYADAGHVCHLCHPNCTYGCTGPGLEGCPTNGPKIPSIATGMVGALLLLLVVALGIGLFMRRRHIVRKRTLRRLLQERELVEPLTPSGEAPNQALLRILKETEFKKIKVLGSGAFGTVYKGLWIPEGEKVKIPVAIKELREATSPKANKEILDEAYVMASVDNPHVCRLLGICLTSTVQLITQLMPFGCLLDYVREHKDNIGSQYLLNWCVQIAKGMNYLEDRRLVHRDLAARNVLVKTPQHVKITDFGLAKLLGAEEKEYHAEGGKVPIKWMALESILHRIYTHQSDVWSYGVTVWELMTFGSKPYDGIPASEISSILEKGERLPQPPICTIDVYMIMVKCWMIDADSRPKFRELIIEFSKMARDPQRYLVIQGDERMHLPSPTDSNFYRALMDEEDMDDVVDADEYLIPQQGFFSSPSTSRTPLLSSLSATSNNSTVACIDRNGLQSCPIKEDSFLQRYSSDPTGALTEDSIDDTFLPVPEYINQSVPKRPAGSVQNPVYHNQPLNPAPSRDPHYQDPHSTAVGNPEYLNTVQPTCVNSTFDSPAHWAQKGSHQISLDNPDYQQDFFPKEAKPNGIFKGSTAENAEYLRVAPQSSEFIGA

Row | IC50 | SMILES
1 | ≥ 1000 nM | C=C(F)C(=O)N1CCN(c2ccc3ncnc(Nc4ccc(Oc5ccc6c(c5)nnn6C)c(C)c4)c3n2)C[C@H]1CC#N [Compound 86, (R)-2-(1-(2-fluoroacryloyl)-4-(4-((3-methyl-4-((1-methyl-1H-benzo[d][1,2,3]triazol-5-yl)oxy)phenyl)amino)pyrido[3,2-d]pyrimidin-6-yl)piperazin-2-yl)acetonitrile]
2 | < 50 nM | C=CC(=O)N1CCN(c2ncc3ncnc(Nc4ccc(Oc5cc(OC)c6c(c5)nnn6C)c(C)c4)c3n2)CC1 [Compound 113, 1-(4-(8-((4-((7-methoxy-1-methyl-1H-benzo[d][1,2,3]triazol-5-yl)oxy)-3-methylphenyl)amino)pyrimido[5,4-d]pyrimidin-2-yl)piperazin-1-yl)prop-2-en-1-one]
3 | < 50 nM | C=CC(=O)N1CCN(c2ccc3ncnc(Nc4cc(C)c(Oc5ccn6ncnc6c5)cc4OC)c3n2)C[C@H]1C [Compound 318, (R)-1-(4-(4-((4-([1,2,4]triazolo[1,5-a]pyridin-7-yloxy)-2-methoxy-5-methylphenyl)amino)pyrido[3,2-d]pyrimidin-6-yl)-2-methylpiperazin-1-yl)prop-2-en-1-one]
4 | ≥ 1000 nM | C=CC(=O)N1[C@@H](C)CN(c2ncc3ncnc(Nc4ccc(Oc5ccc6c(c5)nnn6C)c(C)c4)c3n2)C[C@@H]1C [Compound 184, 1-((2S,6S)-2,6-dimethyl-4-(8-((3-methyl-4-((1-methyl-1H-benzo[d][1,2,3]triazol-5-yl)oxy)phenyl)amino)pyrimido[5,4-d]pyrimidin-2-yl)piperazin-1-yl)prop-2-en-1-one]
5 | 100 to 500 nM | C=CC(=O)N1CCN(c2ncc3ncnc(Nc4ccc(Oc5cc(F)c6c(c5)nnn6C)c(C)c4F)c3n2)C[C@H]1C1CC1 [Compound 197, (R)-1-(2-cyclopropyl-4-(8-((2-fluoro-4-((7-fluoro-1-methyl-1H-benzo[d][1,2,3]triazol-5-yl)oxy)-3-methylphenyl)amino)pyrimido[5,4-d]pyrimidin-2-yl)piperazin-1-yl)prop-2-en-1-one]
6 | 100 to 500 nM | C=CC(=O)N[C@@]1(C)CCN(c2ncc3ncnc(Nc4ccc(Oc5ccc6c(c5)nnn6C)c(C)c4)c3n2)C1 [Compound 145, (S)-N-(3-methyl-1-(8-((3-methyl-4-((1-methyl-1H-benzo[d][1,2,3]triazol-5-yl)oxy)phenyl)amino)pyrimido[5,4-d]pyrimidin-2-yl)pyrrolidin-3-yl)acrylamide]
7 | 500 to 1000 nM | C=CC(=O)N[C@H]1CCCN(c2ncc3ncnc(Nc4ccc(Oc5ccc6c(c5)nnn6C)c(C)c4)c3n2)C1 [Compound 126, (S)-N-(1-(8-((3-methyl-4-((1-methyl-1H-benzo[d][1,2,3]triazol-5-yl)oxy)phenyl)amino)pyrimido [5,4-d]pyrimidin-2-yl)piperidin-3-yl)acrylamide]
8 | ≥ 1000 nM | C=C(F)C(=O)N1C2CCC1CN(c1ncc3ncnc(Nc4ccc(Oc5ccc6c(c5)nnn6C)c(C)c4)c3n1)C2 [Compound 51, 2-fluoro-1-(3-(8-((3-methyl-4-((1-methyl-1H-benzo[d][1,2,3]triazol-5-yl)oxy)phenyl)amino)pyrimido [5,4-d]pyrimidin-2-yl)-3,8-diazabicyclo [3.2.1]octan-8-yl)prop-2-en-1-one 2,2,2-trifluoroacetate]
9 | < 50 nM | C=CC(=O)N1CC2CCC1CN2c1ccc2ncnc(Nc3ccc(Oc4ccc5c(c4)nnn5C)c(C)c3)c2n1 (stereo not shown) [Compound 82, 1-(5-(4-((3-methyl-4-((1-methyl-1H-benzo[d][1,2,3]triazol-5-yl)oxy)phenyl)amino)pyrido[3,2-d]pyrimidin-6-yl)-2,5-diazabicyclo[2.2.2]octan-2-yl)prop-2-en-1-one]
10 | ≥ 1000 nM | C=C(F)C(=O)N1CC[C@H](N(C)c2ccc3ncnc(Nc4ccc(Oc5ccc6c(c5)nnn6C)c(C)c4F)c3n2)C1 [Compound 365, (S)-2-fluoro-1-(3-((4-((2-fluoro-3-methyl-4-((1-methyl-1H-benzo[d][1,2,3]triazol-5-yl)oxy)phenyl)amino)pyrido[3,2-d]pyrimidin-6-yl)(methyl)amino)pyrrolidin-1-yl)prop-2-en-1-one]
11 | 100 to 500 nM | C=CC(=O)N1CCN(c2ncc3ncnc(Nc4ccc(Oc5ccc6c(c5)nnn6C)c(C)c4)c3n2)C[C@@H]1COC [Compound 116, (R)-1-(2-(methoxymethyl)-4-(8-((3-methyl-4-((1-methyl-1H-benzo[d][1,2,3]triazol-5-yl)oxy)phenyl)amino)pyrimido[5,4-d]pyrimidin-2-y1)piperazin-1-yl)prop-2-en-1-one]
12 | 50 to 100 nM | C=CC(=O)N1CCN(c2ncc3ncnc(Nc4ccc(Oc5ccc6c(c5)nnn6C)c(C)c4)c3n2)C[C@H]1COC [Compound 120, (S)-1-(2-(methoxymethyl)-4-(8-((3-methyl-4-((1-methyl-1H-benzo[d][1,2,3]triazol-5-yl)oxy)phenyl)amino)pyrimido[5,4-d]pyrimidin-2-y1)piperazin-1-yl)prop-2-en-1-one]

The next lines start with the molecule.

Row | SMILES | IC50
13 | C=CC(=O)N1CCN(c2ncc3ncnc(Nc4ccc(Oc5ccc6c(c5)nnn6C)c(C)c4)c3n2)C[C@H]1CF (single isomer, unassigned) [Compound 198] | 100 to 500 nM
14 | C=C(F)C(=O)N1CCN(c2ncc3ncnc(Nc4ccc(Oc5ccc6c(c5)nnn6C)c(C)c4)c3n2)C[C@H]1COC [Compound 211, (S)-2-fluoro-1-(2-(methoxymethyl)-4-(8-((3-methyl-4-((1-methyl-1H-benzo[d][1,2,3]triazol-5-yl)oxy)phenyl)amino)pyrimido [5,4-d]pyrimidin-2-yl)piperazin-1-yl) prop-2-en-1-one] | ≥ 1000 nM
15 | C=CC(=O)N1CCC(Oc2nc3c(Nc4ccc(Oc5ccc6c(c5)ncn6C)c(C)c4F)ncnc3cc2OC)CC1 [Compound 394, 1-(4-((4-((2-fluoro-3-methyl-4-((1-methyl-1H-benzo[1d]imidazol-5-yl)oxy)phenyl)amino)-7-methoxypyrido[3,2-d]pyrimidin-6-yl)oxy)piperidin-1-yl)prop-2-en-1-one] | < 50 nM
16 | C=CC(=O)N[C@H]1CCN(c2ccc3ncnc(Nc4ccc(Oc5ccc6c(c5)nnn6C)c(C)c4F)c3n2)C[C@@H]1F [Compound 280, N-((3S,4S)-3-fluoro-1-(4-((2-fluoro-3-methyl-4-((1-methyl-1H-benzo[d][1,2,3]triazol-5-yl)oxy)phenyl)amino)pyrido[3,2-d]pyrimidin-6-yl)piperidin-4-yl)acrylamide] | 100 to 500 nM
17 | C=CC(=O)N1CCN(c2ccc3ncnc(Nc4ccc(Oc5ccc6c(c5)nnn6C)c(C)c4)c3n2)CC1 [Compound 92, 1-(4-(4-((3-methyl-4-((1-methyl-1H-benzo[d][1,2,3]triazol-5-yl)oxy)phenyl)amino)pyrido[3,2-d]pyrimidin-6-yl)piperazin-1-yl)prop-2-en-1-one] | 50 to 100 nM
18 | C=CC(=O)N1CCN(c2ccc3ncnc(Nc4ccc(Oc5cnc6c(c5)ncn6C(F)F)c(C)c4)c3n2)C[C@H]1C [Compound 249, (R)-1-(4-(4-((4-((3-(difluoromethyl)-3H-imidazo[4,5-b]pyridin-6-yl)oxy)-3-methylphenyl)amino)pyrido[3,2-d]pyrimidin-6-yl)-2-methylpiperazin-1-yl)prop-2-en-1-one] | < 50 nM
19 | C=CC(=O)N[C@H]1C[C@@H](C)CN(c2ncc3ncnc(Nc4ccc(Oc5ccc6c(c5)nnn6C)c(C)c4F)c3n2)C1 (single isomer, unassigned) [Compound 204] | 50 to 100 nM
20 | C=CC(=O)N1CCN(c2ncc3ncnc(Nc4ccc(Oc5cc6nnn(C)c6c(C)c5F)c(C)c4)c3n2)C[C@H]1C [Compound 236, (R)-1-(4-(8-((4-((6-fluoro-1,7-dimethyl-1H-benzo[d][1,2,3]triazol-5-yl)oxy)-3-methylphenyl)amino)pyrimido[5,4-d]pyrimidin-2-yl)-2-methylpiperazin-1-yl)prop-2-en-1-one] | 100 to 500 nM
21 | C=CC(=O)N1CCN(c2ncc3ncnc(Nc4ccc(Oc5cc(F)c6c(c5)ncn6C)c(C)c4F)c3n2)CC[C@@H]1C [Compound 181, (S)-1-(4-(8-((2-fluoro-4-((7-fluoro-1-methyl-1H-benzo[d]imidazol-5-yl)oxy)-3-methylphenyl)amino)pyrimido[5,4-d]pyrimidin-2-y1)-7-methyl-1,4-diazepan-1-yl)prop-2-en-1-one] | < 50 nM
22 | C=CC(=O)N1CCN(c2ccc3ncnc(Nc4ccc(Oc5ccc6c(c5)nnn6C)c(C)c4)c3n2)CC12CC2 [Compound 74, 1-(7-(4-((3-methyl-4-((1-methyl-1H-benzo[d][1,2,3]triazol-5-yl)oxy)phenyl)amino)pyrido[3,2-d]pyrimidin-6-yl)-4,7-diazaspiro[2.5]octan-4-yl)prop-2-en-1-one] | < 50 nM
23 | C=CC(=O)N[C@H]1C[C@@H](C)CN(c2ccc3ncnc(Nc4ccc(Oc5ccc6c(c5)nnn6C)c(C)c4F)c3n2)C1 (single isomer, unassigned) [Compound 337] | 100 to 500 nM
24 | C=CC(=O)N1CCN(c2ncc3ncnc(Nc4cc(C)c(Oc5cc(F)c6c(c5)ncn6C)cc4OC)c3n2)CC1 [Compound 38, 1-(4-(8-((4-((7-fluoro-1-methyl-1H-benzo[d]imidazol-5-y1)oxy)-2-methoxy-5-methylphenyl)amino)pyrimido[5,4-d]pyrimidin-2-yl)piperazin-1-yl)prop-2-en-1-one 2,2,2-trifluoroacetate] | 100 to 500 nM
25 | C=C(F)C(=O)N1C2C=C(c3ccc4ncnc(Nc5ccc(Oc6ccc7c(c6)nnn7C)c(C)c5)c4n3)CC1COC2 (stereo not shown) [Compound 410, 2-fluoro-1-(7-(4-((3-methyl-4-((1-methyl-1H-benzo[d][1,2,3]triazol-5-yl)oxy)phenyl)amino)pyrido[3,2-d]pyrimidin-6-yl)-3-oxa-9-azabicyclo[3.3.1]non-6-en-9-yl)prop-2-en-1-one trifluoroacetate] | ≥ 1000 nM

Reference: patent publication US20250129078A1, “ERBB2 INHIBITORS” (Cogent Biosciences, Inc., priority 2023, published 2025)
